Values of other authors in patent publication US20110274624A1, “CONTRAST AGENTS IN POROUS PARTICLES” (WILLIAM MARSH RICE UNIVERSITY, priority 2010, published 2011).
Like-named read-outs stand apart in the source and are kept apart here.

Row | SMILES | longitudinal relaxivity r1 (field not stated) [mM⁻¹ s⁻¹] | r1 per Gd^3+ ion (1.41T) | r1 per Gd^3+ ion (1.5T) [mM⁻¹ s⁻¹]
1 | CC(O)CN1CCN(CC(=O)[O-])CCN(CC(=O)[O-])CCN(CC(=O)[O-])CC1.[Gd+3] (stereo not shown) [Gd-HP-DO3A] | – | 3.2 (1. 41T) mM^−1s^−1 | –
2 | O=C([O-])CN(CCN(CC(=O)[O-])CC(=O)[O-])CCN(CC(=O)[O-])C(COCc1ccccc1)C(=O)[O-].[Gd+3] (stereo not shown) [Gd-BOPTA] | – | 4.1 (1. 41T) mM^−1s^−1 | –
3 | CNC(=O)CN(CCN(CCN(CC(=O)[O-])CC(=O)NC)CC(=O)[O-])CC(=O)[O-].[Gd+3] [Gd-DTPA-BMA] | – | 3.6 (1. 41T) mM^−1s^−1 | –
4 | O=C([O-])CN1CCN(CC(=O)[O-])CCN(CC(=O)[O-])CCN(CC(=O)[O-])CC1.[Gd+3] [Gd-DOTA] | – | 3.1 (1.41T) mM^−1s^−1 | –

Results, then the molecule that gave them:

Row | longitudinal relaxivity r1 (field not stated) [mM⁻¹ s⁻¹] | r1 per Gd^3+ ion (1.41T) | r1 per Gd^3+ ion (1.5T) [mM⁻¹ s⁻¹] | SMILES
5 | ~8 | – | – | [Gd+3] [Gd^3+ ion]
6 | – | 3.4 (1.41T) mM^−1s^−1 | ~4 | O=C([O-])CN(CCN(CC(=O)[O-])CC(=O)[O-])CCN(CC(=O)[O-])CC(=O)[O-].[Gd+3] [MAG, Gd-DTPA]
